Reference: article PMC4861277, “The KISS1 Receptor as an In Vivo Microenvironment Imaging Biomarker of Multiple Myeloma Bone Disease” (PLoS ONE, 2016)
Ends that are not written are not given here.

Experiments:
[1] = tested on: MCF-7 tumor-burdened tibiae; assay: In vivo fluorescence imaging of mice intratibially injected with MCF-7 cells; settings: CD-1 nude mice, intratibial MCF-7, 100 μl of 40 μM probe, NightOwl imaging for 20 min, plateau values, n = 3, p<0.05 (S2E Fig)
Method: (§1) In vivo binding of Alexa 633-kisspeptin was tested in immune competent BALB/c and CD-1 nude mice, inoculated with MOPC cells and MCF-7 cells, respectively. All experiments were performed according to the German regulations for animal experimentation. The study was approved by the Regierung von Unterfranken as the responsible authority (Permit Number 55.2–2531.01-76/10 and -103/11) and by the institutional authorities of the Ethics Committee for Animal Experiments at the Christian Albrechts University of Kiel (V242-7224.121–17). 1x10^6 MCF-7 cells transfected with the near-infrared fluorescent protein [31] were suspended in 5 μl PBS and injected directly into the right tibia, with equal amounts of PBS injected into contralateral control limbs, of 3 female CD-1 nude mice (Charles River). Tumor progression was monitored using the NightOwl planar imaging system (Berthold Technologies, Bad Wildbad, Germany). […]
(§2) Supplementary file pone.0155087.s002.tif: S2 Fig Alexa 633-kisspeptin binds to the KISS1R-expressing cell line MCF-7 in vitro and in vivo. Cultured MCF-7 cells were incubated with either free dye or dye conjugated to the modified kisspeptin and imaged with fluorescence microscopy (A). […] Tibia fluorescence was quantified over time (D) and plateau fluorescent values determined (E). […]

primary MSCs (KISS1R) = assay: Fluorescence microscopy of probe binding to primary MSCs (alone, conditioned media, direct co-culture with MM cells); format: cell-based, human; settings: for binding to primary MSCs under normal culture conditions: MSCs alone, room temperature, fluorescence microscopy (Cy5 filter), Fig 4A; for binding to primary MSCs under normal culture conditions / binding to MSCs and MM cells after direct co-culture: 30 min incubation, 40 μmol/l; for binding to MSCs and MM cells after direct co-culture: MSCs directly co-cultured 24 h with INA-6 or MOPC cells
Method: (§3) MSCs were seeded in a Nunc^TM Lab-Tek^TM II 4-well chamber slide (6.7x10^3 cells/well) (Thermo Fischer Scientific GmbH, Erlangen, Germany) and allowed to attach overnight. Afterwards, the medium was replaced by 500 μl mixed media, 1:1 (v/v), followed by 24 h incubation. The day after, 500 μl mixed media, 1:1 (v/v) containing 1x10^4 INA-6 cells or 1.5x10^5 MOPC cells, 500 μl MM cell-derived supernatant (conditioned media) or 500 μl mixed media, 1:1 (v/v) (control) was added per well. For preparation of the conditioned media, INA-6 cells (2x10^5 cells/ml) or MOPC cells (3.75x10^4 cells/ml) were cultured for one day in mixed media, 1:1 (v/v), followed by centrifugation (270 g, 5 min) and filtration of the supernatant (filter pore size: 0.45 μm). After 24 h, cells were incubated for 30 min with either free dye or the Alexa 633-kisspeptin (40 μmol/l) at room temperature. After rinsing three times with PBS, cells were fixed in 4% paraformaldehyde and mounted with Vectashield mounting media for fluorescence containing 4',6-diamidino-2-phenylindole (Vector Laboratories, Inc., purchased from Linaris, Dossenheim, Germany). Images were acquired using a BZ-9000 fluorescence microscope (Cy5 filter) and the softwares BZ-II Viewer and BZ-II Analyzer 2.1 (all from Keyence, Neu-Isenburg, Germany).

[2] = mouse, in vivo, iv
Method: BLI was performed with an IVIS Spectrum (Caliper-Xenogen, Alameda, CA, USA) as previously described [32]. Briefly, mice were anesthetized i.p. with a mixture of ketamine (100 mg/kg) and xylazine (10 mg/kg) in PBS. Luciferin (150 mg/kg) was co-injected and BLI measurements were started 10 min later. For MCF-7 mice, animals were imaged every minute following injection of 100 μl of Alexa 633-kisspeptin (40 μM) using the NightOwl. For MM-containing mice, a fluorescence pre-scan (excitation filter: 605 nm, emission filter: 660 nm; illumination time: 1 s) was performed using the IVIS Spectrum. Next, mice were injected with 100 μl of Alexa 633-kisspeptin (40 μM) in the lateral tail vein and immediately imaged every two minutes for up to 20 min using the fluorescence settings as described above. In addition, fluorescent images were acquired after 30, 45, and 60 min. At the end of the experiment mice were then euthanized, organs were prepared, and fluorescence ex vivo imaging of the organs was performed. Imaging data was analyzed with Living Image 4.0 (Caliper-Xenogen, Alameda, CA, USA) and Prism 5 software (GraphPad, La Jolla, CA, USA).
All statistical analyses were conducted using Prism 5 software. Comparison between groups was made using either a paired or unpaired two-sample t-tests. Comparison of organ fluorescence was conducted using a 1-way ANOVA and Turkey’s multiple comparison test. Alexa 633-kisspeptin binding kinetics were quantified using association then dissociation curves with time0 = 25 min and NS = 1. P values of <0.05 were considered to be statistically significant.

[3] = tested on: KISS1R-expressing cell line MCF-7; assay: Fluorescence microscopy of probe binding to cultured MCF-7 cells; format: cell-based, human; settings: S2A Fig
Method: as §3, with “For preparation of the conditioned media, INA-6 cells (2x10^5 cells/ml) or MOPC cells (3.75x10^4 cells/ml) were cultured for one day in mixed media, 1:1 (v/v), followed by centrifugation (270 g, 5 min) and filtration of the supernatant (filter pore size: 0.45 μm). After 24 h, cells were incubated for 30 min with either free dye or the Alexa 633-kisspeptin (40 μmol/l) at room temperature.” left out
as §2

[4] = tested on: MOPC315.BM2-LucGFP MM bone lesions; assay: In vivo time-lapse fluorescence imaging of MM bone lesions (MOPC model); settings: BALB/c mice with MOPC lesions in one hind leg, 100 μl of 40 μM probe i.v., imaged for 1 h, relative to pre-scan, n = 6, p<0.01 (Fig 5E)
Method: as §1, with “Germany). 1x10^5 MOPC cells, suspended in 100 μl PBS, were injected i.v. via the lateral tail vein into immune-competent female BALB/c mice (Charles River). 19 days after the injection of the MM cells, mice were imaged by in vivo bioluminescence (BLI) to identify 6 mice which contain lesions in only one of the hind legs. All animals were kept in temperature and humidity-controlled, pathogen-free environment, with a 12 h light/dark cycle, and access to food and water ad libitum.” for “Germany).”

[5] = tested on: matrix metalloproteinase 2; settings: cited from earlier work
Text: The data presented herein support KISS1R as a novel and promising new biomarker for myeloma bone disease, but still several questions remain. Firstly, while we have described the up-regulation of the KISS1R cells directly interacting with MM cells, little is known so far about the role of kisspeptin and the KISS1R in MM disease progression. It will be of great importance to understand the role of kisspeptin and the KISS1R in both bone marrow cells and MM, and to be aware of what potential side effects, either positive or negative, may be associated with targeting or activation of this system. ...

[6] = compared with 10, 13 and 14 amino acid isoforms; cited from earlier work

## Alexa 633-kisspeptin: 54 amino acid kisspeptin with an N-terminal cysteine residue, labeled with Alexa Fluor 633 C5 Maleimide (C(Alexa Fluor 633 C5 maleimide)GTSLSPPPESSGSPQQPGLSAPHSRQIPAPQGAVLVQREKDLPNYNWNSFGLRF; ends and bridges not checked)
[1]
  fluorescence signal in tumor-burdened tibiae relative to contralateral controls: significantly elevated signals
Primary MSCs (KISS1R); MSCs 24 h in INA-6 or MOPC conditioned media, 30 min with 40 μmol/l probe, Fig 4B
  binding to MSCs cultured in MM cell conditioned media: low level probe binding
Primary MSCs (KISS1R)
  binding to primary MSCs under normal culture conditions: low level, heterogeneous binding
Primary MSCs (KISS1R); Fig 4B
  binding to MSCs and MM cells after direct co-culture: at high levels
[2]
  organ uptake: kidney fluorescence: significantly high levels of fluorescence
  organ uptake: liver fluorescence: significantly high levels of fluorescence
  organ uptake: ovaries: a notable amount of probe was also detected
[3]
  binding to MCF-7 cells in vitro: bound
[4]
  peak fluorescence in tumor-burdened limbs compared to contralateral sites: Significantly greater peak fluorescence levels

## Alexa Fluor 633 C5 Maleimide [free dye, reference compound]
Primary MSCs (KISS1R)
  binding to primary MSCs under normal culture conditions: no notable fluorescence
Primary MSCs (KISS1R); Fig 4B
  binding to MSCs and MM cells after direct co-culture: failed to show any specific binding

## kisspeptin
[5]
  cleavage by matrix metalloproteinase 2: cleaved and inactivated
[6]
  stability of the 54 amino acid form relative to the shorter isoforms: higher stability
